Each molecule was assayed against Neuronal acetylcholine receptor (assay: Evaluated for its binding affinity towards Nicotinic acetylcholine receptor in rat brain homogenate).
Type: tissue-based
For `CN(C)CCC(O)c1ccccc1` (centres undefined), the Ki was > 10000 nM. `CN1CCCCC1CCc1ccccc1` (centres undefined) was tested, and the Ki was 2490 nM. For `CN(CCC(=O)c1ccccc1)CCC(=O)c1ccccc1`, the Ki was > 10000 nM. `CN1[C@@H](CCc2ccccc2)CCC[C@H]1C[C@H](O)c1ccccc1` gave a Ki of 235 nM. For `CN1[C@H](CCc2ccccc2)CCC[C@@H]1CC(=O)c1ccccc1`, the Ki was 110 nM. `CN(CCCc1ccccc1)CCCc1ccccc1` was tested, and the Ki was > 10000 nM. For `CN1[C@@H](C[C@@H](O)c2ccccc2)CCC[C@H]1C[C@H](O)c1ccccc1`, the Ki was 300 nM. `CN1CCCC[C@H]1C[C@H](O)c1ccccc1` was tested, and the Ki was > 10000 nM. Molecule `CN1[C@@H](CC(=O)c2ccccc2)CCC[C@H]1CC(=O)c1ccccc1` has a Ki of 7800 nM. Work on `CN1[C@@H](CC(=O)c2ccccc2)CCC[C@H]1C[C@H](Cl)c1ccccc1` yielded a Ki of 5 nM. `CN1[C@@H](CC(=O)c2ccccc2)CCC[C@H]1/C=C/c1ccccc1` was tested, and the Ki was 1080 nM. In the case of `C[N+]1(C)[C@@H](CC(=O)c2ccccc2)CCC[C@H]1C[C@H](O)c1ccccc1`, the Ki is reported as 2030 nM. For `CN1[C@H](CCc2ccccc2)CCC[C@@H]1C[C@@H](O)c1ccccc1` [8R-hydroxylobelane], the Ki was 340 nM. `CN1[C@@H](CCc2ccccc2)CCC[C@H]1CCc1ccccc1` [LOBELANE] was tested, and the Ki was > 10000 nM.
